Source: US20080069785A1, “PEST-CONTROL COMPOSITIONS, AND METHODS AND PRODUCTS UTILIZING SAME” (priority 2004, published 2008)

System: Horn fly (Haematobia irritans)
Experiment: Treatment of livestock, control of flying insects (Example 23)
Format: in vivo
Description: The objective of this test was to evaluate the efficacy of the formulations in repelling flying insects from landing on and disturbing livestock. Ten animals were utilized for each treatment or control, with 120 cc/animal applied for each treatment. The experiment was performed by diluting the formulation to the appropriate concentration and spraying the formulation onto the livestock directly. One group had Ivermectin applied as a standard for comparison. Each group of animals was separated in the pasture by fencing. Counts were made immediately before treatments and then 1 day after treatment and 1 week after treatment. Every 2 weeks there was a retreatment and counts were repeated just prior to retreatment with same count cycle recurring through 2 week periods.
The flying insect evaluated was the Horn fly (Haematobia irritans).

Ivermectin
Average number of flies landing on the animals (2-Aug, one day after treatment on August 1 (including Ivermectin group)): 4.8 | Average number of flies landing on the animals (6-Jul, one day after the initial treatment, 120 cc/animal, ten animals): 2.4 | Average number of flies landing on the animals (8-Aug, one week after treatment on August 1): 62.0 | Average number of flies landing on the animals (11-Jul, one week after initial treatment): 2.7 | Average number of flies landing on the animals (18-Jul, two weeks after initial treatment): 41.4 | Average number of flies landing on the animals (20-Jul, one day after retreatment on July 19 (except ivermectin)): 54.5 | Average number of flies landing on the animals (25-Jul, one week after retreatment on July 19 (except ivermectin)): 82.7 | Average number of flies landing on the animals (31-Jul, two weeks after retreatment on July 19 (except ivermectin)): 185.9
